Measured values as given in patent US20240317683A1, “METHODS OF TREATING MOOD DISORDERS” (priority 2020, published 2024).
Where a name gives a salt, the structure may show the parent alone.

Legend:
[1] = target: CYP1A2 (Homo sapiens (Human), UniProt P05177); assay: CYP inhibition in human liver microsomes, CYP1A2; assay type: in vitro ADME; details: for inhibition at 10 min, 10 µM: both sexes, human, pooled human liver microsomes, pH 7.4, probe phenacetin (10 μM), HLM, phenacetin substrate, read-out: CYP 1A2 % Inhibition at 10 μM
Chain of CYP1A2 (P05177 whole entry, looked up): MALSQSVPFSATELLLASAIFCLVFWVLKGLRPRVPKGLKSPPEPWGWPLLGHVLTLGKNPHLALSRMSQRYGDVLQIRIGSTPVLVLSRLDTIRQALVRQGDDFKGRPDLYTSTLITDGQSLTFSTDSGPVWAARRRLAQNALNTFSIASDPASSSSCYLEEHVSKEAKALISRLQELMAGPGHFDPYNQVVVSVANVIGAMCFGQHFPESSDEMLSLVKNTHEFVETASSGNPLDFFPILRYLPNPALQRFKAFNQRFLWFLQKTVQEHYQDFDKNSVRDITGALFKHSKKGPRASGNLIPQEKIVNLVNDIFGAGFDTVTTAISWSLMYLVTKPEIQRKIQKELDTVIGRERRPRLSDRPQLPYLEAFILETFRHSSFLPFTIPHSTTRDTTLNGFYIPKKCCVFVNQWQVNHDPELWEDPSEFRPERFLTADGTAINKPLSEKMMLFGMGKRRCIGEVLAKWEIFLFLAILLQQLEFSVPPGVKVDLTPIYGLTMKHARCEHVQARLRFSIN
Procedure: HLM Incubations. Pooled HLM from adult male and female donors (Corning 452117) were used. Microsomal incubations were carried out in multi-well plates. Liver microsomal incubation aliquots contained 1) PBS (100 mM, pH 7.4), MgCl2 (3.3 mM), and NADPH (1 mM); 2) liver microsomal protein (0.2 mg/mL); 3) the reference CYP substrates: phenacetin for CYP1A2 (10 μM), diclofenac for CYP2C9 (5 μM), (S)-mephenytoin for CYP2C19 (30 μM), dextromethorphan for CYP2D6 (5 μM), and midazolam for CYP3A4 (2 μM); and 4) test compounds (10 μM), control inhibitors (3 μM α-naphthoflavone for CYP1A2, 3 μM sulfaphenazole for CYP2C9, 1 μM (+)-N-3-benzylnirvanol for 2C19, 3 μM quinidine for CYP2D6, or 3 μM ketoconazole for CYP3A4), or solvent (for uninhibited condition). Incubations were carried out at 37° C. with constant shaking for 10 minutes.
Sample Analysis. […] Percent inhibition by test compounds or control inhibitors was calculated by comparing the metabolite formation in the presence of the inhibitor compared to the metabolite formation in the absence of the inhibitor.

[2] = Pharmacokinetics in rats, plasma; assay type: in vivo; details: male, Sprague Dawley, rat plasma, SC
Procedure: Animals. Male Sprague Dawley rats, aged 8-12 weeks, were used in these studies. Four rats were housed in each cage. Temperature and humidity were maintained at 22±3° C. and 30-70%, respectively, and illumination was controlled to give a 12 h light and 12 h dark cycle. Temperature and humidity were recorded by an auto-controlled data logger system. All animals were provided laboratory rodent diet and were fasted for 4 h pre-dose and 2 h post-dose. Reverse osmosis water treated with ultraviolet light was provided ad libitum. Animals were randomly assigned to treatment groups.
Drugs. Compounds 4 and 5 were prepared as described above. Compound 6 was commercially obtained. Test compounds were used as the hydrogen fumarate (6) or hydrochloride (4 and 5) salts and were dissolved in a vehicle consisting of normal saline. They were then administered subcutaneously (SC) at a dose of 1 or 10 mg/kg (calculated based on the free base) and at a volume of 5 mL/kg body weight.
Sample Collection and Bioanalysis. Blood samples (approximately 120 μL) were collected under light isoflurane anesthesia (Surgivet®) from the retro orbital plexus at 0.08, 0.25, 0.5, 1, 2, 4, 8, and 24 h (4 animals per time point). Immediately after blood collection, plasma was harvested by centrifugation at 4,000 rpm for 10 min at 4° C. and samples were stored at −70±10° C. until bioanalysis. Following blood collection, animals were immediately sacrificed, the abdominal vena-cava was cut open, and the whole body was perfused from the heart using 10 mL of normal saline, and brain samples were collected from all animals. After isolation, brain samples were rinsed three times in ice-cold normal saline (for 5-10 seconds/rinse using ˜5-10 mL normal saline in disposable petri dish for each rinse) and dried on blotting paper. Brain samples were homogenized using ice-cold phosphate-buffered saline (pH 7.4). Total homogenate volume was three times the tissue weight. All homogenates were stored at −70±10° C. until bioanalysis. For bioanalysis, 25 μL aliquots of plasma/brain study samples or spiked plasma/brain calibration standards were added to individual pre-labeled micro-centrifuge tubes followed by 100 μL of an internal standard solution (glipizide, 500 ng/ml in acetonitrile) except for blanks, where 100 μL of acetonitrile was added. Samples were vortexed for 5 minutes and then centrifuged for 10 minutes at 4,000 rpm at 4° C. Following centrifugation, 100 μL of each clear supernatant was transferred to a 96 well plate and analyzed with a fit-for-purpose LC-MS/MS method, with authentic samples of each analyte used for calibration and identification.
Data Analysis. Pharmacokinetic parameters were estimated using the non-compartmental analysis tool of Phoenix® WinNonlin software (Ver 8.0).

[3] = target: CYP2C9 (Homo sapiens (Human), UniProt P11712); assay: CYP inhibition in human liver microsomes, CYP2C9; assay type: in vitro ADME; details: for inhibition at 10 min, 10 µM: both sexes, human, pooled human liver microsomes, pH 7.4, probe diclofenac (5 μM), HLM, diclofenac substrate, read-out: CYP 2C9 % Inhibition at 10 μM
Chain of CYP2C9 (P11712 whole entry, looked up): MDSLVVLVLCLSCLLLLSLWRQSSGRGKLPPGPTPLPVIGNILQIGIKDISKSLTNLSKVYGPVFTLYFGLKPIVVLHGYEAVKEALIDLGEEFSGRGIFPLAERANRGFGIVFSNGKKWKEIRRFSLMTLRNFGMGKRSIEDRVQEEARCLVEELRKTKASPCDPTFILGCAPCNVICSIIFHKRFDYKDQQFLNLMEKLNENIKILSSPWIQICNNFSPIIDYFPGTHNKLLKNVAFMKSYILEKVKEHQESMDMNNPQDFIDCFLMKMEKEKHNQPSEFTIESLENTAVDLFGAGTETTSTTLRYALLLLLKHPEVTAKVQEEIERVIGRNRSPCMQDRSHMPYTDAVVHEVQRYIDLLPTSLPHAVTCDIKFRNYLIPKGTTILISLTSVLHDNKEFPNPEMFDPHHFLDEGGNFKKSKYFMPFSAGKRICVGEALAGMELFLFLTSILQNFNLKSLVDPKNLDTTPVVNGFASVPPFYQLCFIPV

[4] = system: C57BL/6 mice; assay: Open field locomotor activity in mice; assay type: in vivo; details: SC
Procedure: Animals. Male C57BL/6 mice, 5-8 weeks of age, (body weight 25-30 g; Envigo, Indianapolis, IN, USA) were housed 5 per polycarbonate tub with soft bedding in a temperature-and humidity-controlled vivarium. Mice were maintained under a 12-h light/dark cycle with lights on at 06:00. Food and water were available ad libitum. Animals acclimated to the vivarium for 1 week prior to experimental manipulations.
Drugs and Drug Administration. Compound 4 was prepared as described above. Compound 4 and saline vehicle were administered subcutaneously (SC), with doses calculated based on the HCl salt. Normal saline was used as the vehicle. All compounds were administered at a volume of 10 mL/kg. Compound 4 or vehicle were administered immediately before the start of the recording session.
Locomotor Activity. Locomotor activity was measured in experimental cages (length×width x height: 560×560×330 mm) by an animal movement analysis system SCANET MV-40 ([…] Co., Ltd., Toyama, Japan). The cumulative activity was recorded for 30 minutes prior to drug administration to establish a baseline, and then animals were recorded for 60 minutes immediately after drug administration. Cages were cleaned between testing sessions.
Statistical Analysis. The total number of beam breaks were summed into 5-minute time bins. The data points shown are the mean ±standard error of the mean (SEM). […]

Compound | IC50 [1] [µM] | AUC(0-t) ([2]; 10 mg/kg) [ng·h/mL] | Cmax ([2]; 10 mg/kg) [ng/mL] | Tmax ([2]; 10 mg/kg) [min] | IC50 [3] [µM] | inhibition at 10 min, 10 µM [1] [%] | inhibition at 10 min, 10 µM [3] [%] | further results
CCN(C)CCc1c[nH]c2ccc(F)cc12 [Compound 4, N-ethyl-2-(5-fluoro-1H-indol-3-yl)-N-methylethan-1-amine hydrochloride] | > 50 | 499 | 237 | 60 | > 50 |  |  | AUC(0-t) ([2]; 1 mg/kg): 46.8 ng·h/mL; Cmax ([2]; 1 mg/kg): 41.3 ng/mL; Tmax ([2]; 1 mg/kg): 30 min; total locomotor activity in the open field ([4]; 60 minutes after administration): dose-dependent decrease; locomotor activity, highest dose group ([4]; highest dose group): near complete reduction in activity
CCN(C)CCc1c[nH]c2ccccc12 [Compound 2, methylethyltryptamine] | > 50 |  |  |  | > 50 | 0.5 | 0 | 
CN(C)CCc1c[nH]c2ccc(F)cc12 [Compound 5, 2-(5-fluoro-1H-indol-3-yl)-N,N-dimethylethan-1-amine hydrochloride] |  | 266 | 243 | 15 |  |  |  | half-life ([2]; 10 mg/kg): 33 min
CCN(C)CCc1c[nH]c2cccc(O)c12 [Compound 6] | > 50 | 3000 | 624 | 120 | > 50 |  |  | 
CCCN(CC)CCc1c[nH]c2ccccc12 [Compound 1, ethylpropyltryptamine] |  |  |  |  |  | 37.1 | 0.1 | 
CCCN(CC)CCc1c[nH]c2ccc(F)cc12 [Compound 3, N-ethyl-N-(2-(5-fluoro-1H-indol-3-yl)ethyl) propan-1-amine hydrochloride] | 8.4 |  |  |  | > 50 |  |  | 
